Data taken from PubChem BioAssay (NCI).
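Values below derive from 48-hour exposures of cells grown in 96-well plates, with endpoints linearly interpolated between the two concentrations bracketing the appropriate inhibition level. Here, GI50 denotes the concentration required for 50% inhibition of growth. TGI: total growth inhibition.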

Experiments:
Test in all cases: growth of human tumour cells (NCI), 48 h
A498 renal = tested on: A498 renal
A549 NSCLC = tested on: A549 NSCLC
EKVX NSCLC = tested on: EKVX NSCLC
MOLT-4 leukemia = tested on: MOLT-4 leukemia
NCI-H23 lung = tested on: NCI-H23 lung
OVCAR-8 ovarian = tested on: OVCAR-8 ovarian
PC-3 prostate = tested on: PC-3 prostate

COc1ccc(/C=N/C2=C(C#N)C(c3ccccc3)c3ccc4ccccc4c3O2)cc1 (stereo not drawn)
GI50 (A498 renal): 0.213 µM | TGI (A498 renal): 0.785 µM | GI50 (A549 NSCLC): 0.641 µM | TGI (A549 NSCLC): > 100 µM | TGI (EKVX NSCLC): > 100 µM | GI50 (MOLT-4 leukemia): 0.516 µM | TGI (MOLT-4 leukemia): > 100 µM | GI50 (NCI-H23 lung): 0.469 µM | TGI (NCI-H23 lung): > 100 µM | GI50 (OVCAR-8 ovarian): 0.486 µM | TGI (OVCAR-8 ovarian): > 100 µM | GI50 (PC-3 prostate): 0.393 µM | TGI (PC-3 prostate): > 100 µM

CCCCCCOc1ccc(/C=N/Nc2cc(C)nc3ccc(Br)cc23)cc1
GI50 (A498 renal): 1.58 µM | TGI (A498 renal): 3.09 µM | GI50 (A549 NSCLC): 1.78 µM | TGI (A549 NSCLC): 3.43 µM | GI50 (EKVX NSCLC): 1.72 µM | TGI (EKVX NSCLC): 3.14 µM | GI50 (MOLT-4 leukemia): 1.2 µM | TGI (MOLT-4 leukemia): 3.18 µM | GI50 (NCI-H23 lung): 1.78 µM | TGI (NCI-H23 lung): 3.43 µM | GI50 (OVCAR-8 ovarian): 2.07 µM | TGI (OVCAR-8 ovarian): 4.12 µM | GI50 (PC-3 prostate): 1.65 µM | TGI (PC-3 prostate): 3.23 µM

COc1cc(/C=C/C(=O)c2ccc(SC)cc2)cc(OC)c1OC
GI50 (A498 renal): 0.936 µM | TGI (A498 renal): 17.1 µM | GI50 (A549 NSCLC): 6.25 µM | TGI (A549 NSCLC): 20.7 µM | GI50 (EKVX NSCLC): 14.9 µM | TGI (EKVX NSCLC): 29.4 µM | GI50 (MOLT-4 leukemia): 3.14 µM | TGI (MOLT-4 leukemia): 8.65 µM | GI50 (NCI-H23 lung): 10 µM | TGI (NCI-H23 lung): 23.5 µM | GI50 (OVCAR-8 ovarian): 2.44 µM | TGI (OVCAR-8 ovarian): 5.85 µM | GI50 (PC-3 prostate): 14.2 µM | TGI (PC-3 prostate): 95.3 µM

COc1ccc(-c2nn(C(=O)c3cc(OC)c(OC)c(OC)c3)c3cc(N)ccc23)cc1
GI50 (A498 renal): < 0.01 µM | TGI (A498 renal): < 0.0171 µM | GI50 (A549 NSCLC): < 0.0146 µM | TGI (A549 NSCLC): 3.96 µM | GI50 (EKVX NSCLC): < 0.0187 µM | TGI (EKVX NSCLC): 51.3 µM | GI50 (MOLT-4 leukemia): 0.0382 µM | TGI (MOLT-4 leukemia): 23.7 µM | GI50 (NCI-H23 lung): 0.0292 µM | TGI (NCI-H23 lung): 15.7 µM | GI50 (OVCAR-8 ovarian): < 0.0156 µM | TGI (OVCAR-8 ovarian): 7.28 µM | GI50 (PC-3 prostate): < 0.0241 µM | TGI (PC-3 prostate): > 30.3 µM

NC(CSC(c1ccccc1)(c1ccccc1)c1ccc(Br)cc1)C(=O)O (stereo not drawn)
GI50 (A498 renal): 0.259 µM | TGI (A498 renal): 32.5 µM | GI50 (A549 NSCLC): 0.375 µM | TGI (A549 NSCLC): > 82.3 µM | GI50 (EKVX NSCLC): 0.707 µM | TGI (EKVX NSCLC): > 100 µM | GI50 (MOLT-4 leukemia): 0.651 µM | TGI (MOLT-4 leukemia): > 82.1 µM | GI50 (NCI-H23 lung): 0.438 µM | TGI (NCI-H23 lung): 66.7 µM | GI50 (OVCAR-8 ovarian): 0.321 µM | TGI (OVCAR-8 ovarian): > 51.7 µM | GI50 (PC-3 prostate): 0.17 µM | TGI (PC-3 prostate): > 77.7 µM

Nc1c2c(c(O)c3c1=C(CO)C=N3)=NCCS2=O (stereo not drawn)
GI50 (A498 renal): 12.2 µM | TGI (A498 renal): 25.3 µM | GI50 (A549 NSCLC): 1.72 µM | TGI (A549 NSCLC): 3.55 µM | GI50 (EKVX NSCLC): 2.51 µM | TGI (EKVX NSCLC): 7.51 µM | GI50 (MOLT-4 leukemia): 1.24 µM | TGI (MOLT-4 leukemia): 4.22 µM | GI50 (NCI-H23 lung): 0.615 µM | TGI (NCI-H23 lung): 5.64 µM | GI50 (OVCAR-8 ovarian): 1.99 µM | TGI (OVCAR-8 ovarian): 4.78 µM | GI50 (PC-3 prostate): 2.19 µM | TGI (PC-3 prostate): 6.13 µM
